The values that follow come from ChEMBL document CHEMBL2440103, “Synthesis, docking, and biological studies of phenanthrene β-diketo acids as novel HIV-1 integrase inhibitors” (Bioorg Med Chem Lett, 2013).

Test [1] has as its target T1, Human immunodeficiency virus type 1 integrase (Human immunodeficiency virus 1, UniProt Q7ZJM1). Briefly: Inhibition of Human immunodeficiency virus 1 integrase strand transfer activity after 30 mins by polyacrylamide gel electrophoresis.
The target in test [2] is T1, Human immunodeficiency virus type 1 integrase. Briefly: Inhibition of Human immunodeficiency virus 1 integrase-mediated 3'-processing after 30 mins by polyacrylamide gel electrophoresis.
A further test concerns PBMC. Nature of the test: Cytotoxicity against human PBMC. Format: cell-based.
The test system of another test is Vero. Nature of the test: Cytotoxicity against african green monkey Vero cells. Format: cell-based. Particulars: Chlorocebus sabaeus.
Another test concerns CCRF-CEM. Nature of the test: Cytotoxicity against human CEM cells. Format: cell-based.
The test system of test [3] is Human immunodeficiency virus 1. Briefly: Antiviral activity against Human immunodeficiency virus 1 infected in human PBMC assessed as inhibition of viral replication after 5 days by RT-PCR method. Format: functional, organism-based. Particulars: Human immunodeficiency virus 1, 120 h.
Test [4] deals with Human immunodeficiency virus type 1 integrase (Human immunodeficiency virus 1) (UniProt Q7ZJM1). Briefly: Selectivity ratio of IC50 for Human immunodeficiency virus 1 integrase-mediated 3'-processing to IC50 for Human immunodeficiency virus 1 integrase strand transfer activity.
Human immunodeficiency virus type 1 integrase (Human immunodeficiency virus 1), sequence (Q7ZJM1 as listed by the source): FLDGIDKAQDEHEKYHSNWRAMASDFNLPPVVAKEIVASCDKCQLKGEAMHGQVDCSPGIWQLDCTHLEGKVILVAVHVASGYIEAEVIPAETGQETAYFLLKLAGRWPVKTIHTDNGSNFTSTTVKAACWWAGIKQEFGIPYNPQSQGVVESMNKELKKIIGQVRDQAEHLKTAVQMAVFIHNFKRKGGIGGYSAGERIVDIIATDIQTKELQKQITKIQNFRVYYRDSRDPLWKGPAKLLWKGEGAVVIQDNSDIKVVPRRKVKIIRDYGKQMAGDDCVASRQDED

T1 sequence (Q7ZJM1 whole entry): as the sequence (Q7ZJM1 as listed by the source) above

Take `O=C(O)C(=O)CC(=O)c1ccc2ccc3cc(F)ccc3c2c1F`: the IC50 in test [1] was 8 µM; in test [2] it was 63 µM.
As for `COc1ccc2c(c1)cc(C(=O)CC(=O)C(=O)O)c1c(F)cccc12`, the values for the IC50 in test [1] and in test [2] were 6 µM and 44 µM, respectively.
In the case of `Cc1cn([C@H]2C[C@H](N=[N+]=[N-])[C@@H](CO)O2)c(=O)[nH]c1=O` [ZIDOVUDINE], in the test with PBMC, the IC50 is greater than 100 µM.
Regarding `O=C(O)C(=O)CC(=O)c1ccc2c(ccc3c(F)cccc32)c1`, the IC50 was 4 µM in test [1] and 35 µM in test [2].
For `COc1ccc2c(c1)cc(C(=O)CC(=O)C(=O)O)c1ccccc12` the same measures were 3 µM and 32 µM.
Regarding `O=C(O)C(=O)CC(=O)c1ccc2ccc3ccccc3c2c1F`, the figures for the IC50 in test [1] and in test [2] were 63 µM and 83 µM, respectively.
For the molecule `O=C(O)C(=O)CC(=O)c1ccc2c(ccc3c(Cl)cccc32)c1`, the IC50 in test [1] stood at 4 µM; in test [2] it was 19 µM.
In the case of `O=C(O)C(=O)CC(=O)c1ccc2c(ccc3ccc(Cl)cc32)c1`, the IC50 in test [1] came out at 1.3 µM; in the test on Vero, 4.5 µM; with PBMC, 4 µM; in the test with CCRF-CEM, 13.1 µM; in test [2], 5 µM. Besides, the EC50 in test [3] turned out to be 27.5 µM.
For the molecule `O=C(O)C(=O)CC(=O)c1ccc2ccc3c(Cl)cccc3c2c1`, the IC50 in test [1] came out at 1.2 µM; in test [2], 11 µM.
`O=C(O)C(=O)CC(=O)c1ccc2c(ccc3cc(Cl)ccc32)c1`: the IC50 was found to be 1.4 µM in test [1]; 7.2 µM in the test with Vero; 14.1 µM with PBMC; 12.1 µM with CCRF-CEM; 12 µM in test [2]. For the same molecule, in test [4], the Ratio IC50 came to 9. Further, the EC50 in test [3] is 20.9 µM.
`O=C(O)C(=O)CC(=O)c1ccc2ccc3c(F)cccc3c2c1`: the results for the IC50 in test [1] and in test [2] were 3 µM and 11 µM, respectively.

Broadly, the IC50 is the concentration that gives 50% inhibition. One may read the EC50 as the concentration giving half of the maximal effect.
